{"source": "paper PMC7287880", "about": "“Structural Basis for Broad Substrate Selectivity of Alcohol Dehydrogenase YjgB from Escherichia coli” (Molecules, 2020)", "target": "T1, EcYjgB (YjgB) (Escherichia coli, UniProt P27250)", "T1 construct": "gene ahr; full-length, C-terminal 6xHis tag (pET30a), recombinant in E. coli BL21(DE3), purified by Ni-NTA and size exclusion; Zn-containing dimer", "T1 sequence (P27250 1-339)": "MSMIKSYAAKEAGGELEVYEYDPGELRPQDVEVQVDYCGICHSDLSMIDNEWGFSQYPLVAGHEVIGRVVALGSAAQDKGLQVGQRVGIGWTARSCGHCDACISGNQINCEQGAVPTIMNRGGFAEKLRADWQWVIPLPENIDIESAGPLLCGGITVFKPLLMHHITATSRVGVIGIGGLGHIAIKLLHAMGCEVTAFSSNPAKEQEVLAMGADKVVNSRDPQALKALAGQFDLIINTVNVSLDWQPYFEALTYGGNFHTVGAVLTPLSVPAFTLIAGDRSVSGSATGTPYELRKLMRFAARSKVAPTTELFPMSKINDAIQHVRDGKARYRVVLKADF", "test": "X-ray crystal structure of soaked crystal, […] A", "type": "binding", "settings": "apo crystals soaked with 5 mM NADP for 30 min at 7 C; Zn-bound; PEG fragment in substrate pocket; Rossmann-fold cofactor site", "data": [{"molecule": "NC(=O)c1ccc[n+]([C@@H]2O[C@H](COP(=O)(O)OP(=O)(O)OC[C@H]3O[C@@H](n4cnc5c(N)ncnc54)[C@H](OP(=O)(O)O)[C@@H]3O)[C@@H](O)[C@H]2O)c1", "note": "[NADP]", "values": [{"measurement": "X-ray crystal structure of soaked crystal, 2.00 A", "value": "The electron density of NADP is clearly shown in the NADP(H) binding site"}]}]}
